Measured values as given in PubChem BioAssay AID256 (DTP/NCI, 2004).
Several values for one entry are separate records, joined by “and”; a condition that tells them apart may be missing. Identical values can stand only once. Inconclusive results and toxic doses are left out. How the source made its calls: active means survival T/C of 150% or more; inactive means T/C below 125% in these data.

Test system: CD2F1 mice, L1210 leukemia ip, survival T/C
Assay: NCI In Vivo Anticancer Drug Screen. Data for tumor model L1210 Leukemia (intraperitoneal) in CD2F1 (CDF1) mice
Details: higher = longer survival
Method in brief: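 Tumor-bearing mice (transplanted tumor) were split into treated and vehicle control groups, and the measured endpoint of each treated group was divided by that of its vehicle controls.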

[1] = endpoint: mean survival time, dose: 25.0 mg/kg/injection, schedule: Q01DX009 (ip), vehicle: saline with Tween-80
[2] = endpoint: mean survival time, dose: 50.0 mg/kg/injection, schedule: Q01DX009 (ip), vehicle: saline with Tween-80
[3] = endpoint: mean survival time, dose: 100.0 mg/kg/injection, schedule: Q04DX003 (ip), vehicle: saline with Tween-80
[4] = endpoint: mean survival time, dose: 200.0 mg/kg/injection, schedule: Q04DX003 (ip), vehicle: saline with Tween-80
[5] = endpoint: mean survival time, dose: 400.0 mg/kg/injection, schedule: Q04DX003 (ip), vehicle: saline with Tween-80
[6] = endpoint: mean survival time, dose: 100.0 mg/kg/injection, schedule: Q01DX009 (ip), vehicle: saline with Tween-80
[7] = endpoint: mean survival time, dose: 200.0 mg/kg/injection, schedule: Q01DX009 (ip), vehicle: saline with Tween-80
[8] = endpoint: mean survival time, dose: 400.0 mg/kg/injection, schedule: Q01DX009 (ip), vehicle: saline with Tween-80
[9] = endpoint: mean survival time, dose: 25.0 mg/kg/injection, schedule: Q04DX003 (ip), vehicle: saline with Tween-80
[10] = endpoint: mean survival time, dose: 50.0 mg/kg/injection, schedule: Q04DX003 (ip), vehicle: saline with Tween-80
[11] = endpoint: mean survival time, dose: 100.0 mg/kg/injection, schedule: Q01DX009 (ip), vehicle: saline
[12] = endpoint: mean survival time, dose: 6.25 mg/kg/injection, schedule: Q01DX009 (ip), vehicle: saline
[13] = endpoint: mean survival time, dose: 12.5 mg/kg/injection, schedule: Q01DX009 (ip), vehicle: saline
[14] = endpoint: mean survival time, dose: 25.0 mg/kg/injection, schedule: Q01DX009 (ip), vehicle: saline
[15] = endpoint: mean survival time, dose: 50.0 mg/kg/injection, schedule: Q01DX009 (ip), vehicle: saline
[16] = endpoint: mean survival time, dose: 25.0 mg/kg/injection, schedule: Q04DX002 (ip), vehicle: saline with Tween-80

Measured: T/C

CC1CC(C)CC(C)C(O)/C(C#N)=C/C=C/CC(C2CCCC2C(=O)O)OC(=O)CC(O)C(C)C1 (configuration not stated)
inactive: endpoint: mean survival time, dose: 1.56 mg/kg/injection, schedule: Q01DX009 (ip), vehicle: Klucel (hydroxypropylcellulose) (HPC) 105 % of control | endpoint: mean survival time, dose: 3.13 mg/kg/injection, schedule: Q01DX009 (ip), vehicle: Klucel (hydroxypropylcellulose) (HPC) 109 % of control | endpoint: mean survival time, dose: 6.25 mg/kg/injection, schedule: Q01DX009 (ip), vehicle: Klucel (hydroxypropylcellulose) (HPC) 89 % of control and 96 % of control

O=C(CC(=O)c1cccc([N+](=O)[O-])c1)Nc1cccc([N+](=O)[O-])c1
inactive: endpoint: mean survival time, dose: 100.0 mg/kg/injection, schedule: Q01DX009 (ip), vehicle: Klucel (hydroxypropylcellulose) (HPC) 92 % of control | endpoint: mean survival time, dose: 100.0 mg/kg/injection, schedule: Q04DX003 (ip), vehicle: Klucel (hydroxypropylcellulose) (HPC) 90 % of control | endpoint: mean survival time, dose: 200.0 mg/kg/injection, schedule: Q01DX009 (ip), vehicle: Klucel (hydroxypropylcellulose) (HPC) 92 % of control | endpoint: mean survival time, dose: 200.0 mg/kg/injection, schedule: Q04DX003 (ip), vehicle: Klucel (hydroxypropylcellulose) (HPC) 96 % of control | endpoint: mean survival time, dose: 400.0 mg/kg/injection, schedule: Q01DX009 (ip), vehicle: Klucel (hydroxypropylcellulose) (HPC) 94 % of control | endpoint: mean survival time, dose: 400.0 mg/kg/injection, schedule: Q04DX003 (ip), vehicle: Klucel (hydroxypropylcellulose) (HPC) 96 % of control

CCCS(=O)(=O)Nc1ccc(Nc2c3ccccc3nc3ccccc23)c(OC)c1
inactive: endpoint: mean survival time, dose: 3.75 mg/kg/injection, schedule: Q01DX009 (ip), vehicle: saline 122 % of control

C1=CC=CCC=C1
inactive: endpoint: mean survival time, dose: 12.5 mg/kg/injection, schedule: Q01DX009 (ip), vehicle: saline with Tween-80 92 % of control | [1] 92 % of control | [2] 98 % of control

COc1ccc(-c2cc(C(=O)O)c3ccc(C)cc3n2)cc1
inactive: [3] 102 % of control | [4] 101 % of control | [5] 101 % of control

CC(C)(C[NH-])C[NH-].O=C(O)CC(=O)O.[Pt+2]
inactive: endpoint: median survival time, dose: 0.78 mg/kg/injection, schedule: Q04DX003 (ip), vehicle: water 116 % of control | endpoint: median survival time, dose: 1.56 mg/kg/injection, schedule: Q04DX003 (ip), vehicle: water 113 % of control | endpoint: median survival time, dose: 3.12 mg/kg/injection, schedule: Q04DX003 (ip), vehicle: water 112 % of control | endpoint: median survival time, dose: 3.13 mg/kg/injection, schedule: Q04DX003 (ip), vehicle: distilled water + Tween-80 123 % of control | endpoint: median survival time, dose: 12.5 mg/kg/injection, schedule: Q04DX003 (ip), vehicle: distilled water + Tween-80 116 % of control | endpoint: median survival time, dose: 12.5 mg/kg/injection, schedule: Q04DX003 (ip), vehicle: water 112 % of control | endpoint: median survival time, dose: 25.0 mg/kg/injection, schedule: Q04DX003 (ip), vehicle: distilled water + Tween-80 98 % of control

CC(C)(C)C(O)CC(O)(C(F)(F)Cl)C(F)(F)Cl (configuration not stated)
inactive: [6] 101 % of control | [7] 109 % of control | [8] 105 % of control

COc1cc(-c2[nH]c(=S)[nH]c(=O)c2CCO)cc(OC)c1OC
inactive: [3] 98 % of control | [4] 98 % of control | [5] 91 % of control

O=C1c2ccccc2C(Cl)(c2ccc(Cl)cc2)c2ccc(Cl)cc21 (configuration not stated)
inactive: endpoint: median survival time, dose: 25.0 mg/kg/injection, schedule: Q01DX009 (ip), vehicle: saline with Tween-80 111 % of control | endpoint: median survival time, dose: 50.0 mg/kg/injection, schedule: Q01DX009 (ip), vehicle: saline with Tween-80 112 % of control | endpoint: median survival time, dose: 100.0 mg/kg/injection, schedule: Q01DX009 (ip), vehicle: saline with Tween-80 111 % of control

C[N+](C)(CCO)Cc1ccccc1
inactive: [1] 102 % of control | [9] 97 % of control | [2] 105 % of control | [10] 100 % of control | [6] 105 % of control | [3] 96 % of control and 101 % of control

O=c1oc(-c2ccc(Cl)cc2)nc2cc(Cl)ccc12
inactive: [9] 93 % of control | [10] 93 % of control | [3] 86 % of control and 89 % of control

CN1CCN(Cc2cn(C3CC(O)C(CO)O3)c(=O)[nH]c2=O)CC1 (configuration not stated)
inactive: endpoint: mean survival time, dose: 12.5 mg/kg/injection, schedule: Q01DX005 (ip), vehicle: water 96 % of control | endpoint: mean survival time, dose: 25.0 mg/kg/injection, schedule: Q01DX005 (ip), vehicle: water 93 % of control | endpoint: mean survival time, dose: 50.0 mg/kg/injection, schedule: Q01DX005 (ip), vehicle: water 91 % of control | endpoint: mean survival time, dose: 100.0 mg/kg/injection, schedule: Q01DX005 (ip), vehicle: water 95 % of control | endpoint: mean survival time, dose: 200.0 mg/kg/injection, schedule: Q01DX005 (ip), vehicle: water 90 % of control

Brc1cn[nH]c1Br
inactive: [3] 98 % of control | [4] 104 % of control | [5] 88 % of control

O=C1CN(c2ccccc2)C(=O)C1C(=O)Nc1ccc(Cl)c(Cl)c1 (configuration not stated)
inactive: endpoint: median survival time, dose: 25.9 mg/kg/injection, schedule: Q01DX005 (ip), vehicle: saline with Tween-80 104 % of control | endpoint: median survival time, dose: 30.0 mg/kg/injection, schedule: Q01DX005 (ip), vehicle: saline with Tween-80 97 % of control | endpoint: median survival time, dose: 43.0 mg/kg/injection, schedule: Q01DX005 (ip), vehicle: saline with Tween-80 101 % of control and 104 % of control | endpoint: median survival time, dose: 43.2 mg/kg/injection, schedule: Q01DX005 (ip), vehicle: saline with Tween-80 98 % of control and 104 % of control | endpoint: median survival time, dose: 60.0 mg/kg/injection, schedule: Q01DX005 (ip), vehicle: saline with Tween-80 102 % of control

O=c1[nH]c2ccc(Br)cc2c(=O)o1
inactive: [11] 104 % of control | endpoint: mean survival time, dose: 200.0 mg/kg/injection, schedule: Q01DX009 (ip), vehicle: saline 116 % of control | endpoint: mean survival time, dose: 400.0 mg/kg/injection, schedule: Q01DX009 (ip), vehicle: saline 108 % of control

CC(=O)O[C@@H]1[C@@H](O)C2=C3[C@]4(C)[C@@H]1C(C)(C)C(=O)C[C@@H]4[C@]3(O)[C@H](OC(C)=O)[C@@]1(C[C@@H]1C)C2=O
inactive: endpoint: mean survival time, dose: 3.12 mg/kg/injection, schedule: Q01DX009 (ip), vehicle: distilled water + Tween-80 102 % of control | endpoint: mean survival time, dose: 3.12 mg/kg/injection, schedule: Q01DX009 (ip), vehicle: saline 96 % of control | endpoint: mean survival time, dose: 6.25 mg/kg/injection, schedule: Q01DX009 (ip), vehicle: distilled water + Tween-80 105 % of control | [12] 102 % of control | endpoint: mean survival time, dose: 12.5 mg/kg/injection, schedule: Q01DX009 (ip), vehicle: distilled water + Tween-80 100 % of control | [13] 104 % of control | endpoint: mean survival time, dose: 25.0 mg/kg/injection, schedule: Q01DX009 (ip), vehicle: distilled water + Tween-80 100 % of control | [14] 104 % of control | endpoint: mean survival time, dose: 50.0 mg/kg/injection, schedule: Q01DX009 (ip), vehicle: distilled water + Tween-80 103 % of control | [15] 108 % of control | endpoint: mean survival time, dose: 100.0 mg/kg/injection, schedule: Q01DX009 (ip), vehicle: distilled water + Tween-80 96 % of control | [11] 111 % of control

O=C(CNC(=O)c1ccccc1)N/N=C/c1cccc([N+](=O)[O-])c1
inactive: [6] 90 % of control | [8] 89 % of control

CCN(CC)C(=S)N1C(=O)C2C3CCC(O3)C2C1=O (configuration not stated)
inactive: [16] 93 % of control

CCCCCCCCC1SC1CCCCCCCC(=O)NCCOC(=O)CCCCCCCC1SC1CCCCCCCC (configuration not stated)
inactive: [6] 92 % of control | [7] 95 % of control | [8] 93 % of control

CCOc1ccc(OCC)c(NC(=O)Nc2ccccc2C)c1
inactive: [16] 88 % of control | endpoint: mean survival time, dose: 50.0 mg/kg/injection, schedule: Q04DX002 (ip), vehicle: saline with Tween-80 88 % of control | endpoint: mean survival time, dose: 100.0 mg/kg/injection, schedule: Q04DX002 (ip), vehicle: saline with Tween-80 90 % of control | endpoint: mean survival time, dose: 400.0 mg/kg/injection, schedule: Q04DX002 (ip), vehicle: saline with Tween-80 90 % of control

CCOC1(CC)CN(Cc2ccccc2)CCO1 (configuration not stated)
inactive: [3] 100 % of control | [4] 100 % of control | [5] 97 % of control

CC(=O)N(C)c1ccc(Nc2cc(C)[nH]c3ccc4ncnc4c23)cc1
active: endpoint: median survival time, dose: 67.0 mg/kg/injection, schedule: Q01DX005 (ip), vehicle: saline 156 % of control and 164 % of control | endpoint: median survival time, dose: 100.0 mg/kg/injection, schedule: Q01DX005 (ip), vehicle: saline 160 % of control
inactive: [12] 114 % of control and 110 % of control | [13] 120 % of control and 110 % of control | [14] 118 % of control and 121 % of control | [15] 119 % of control | [11] 113 % of control and 100 % of control

CCN(CC)CCNCc1c[nH]c(=S)[nH]c1=O
inactive: endpoint: mean survival time, dose: 100.0 mg/kg/injection, schedule: Q04DX003 (ip), vehicle: saline 103 % of control | endpoint: mean survival time, dose: 200.0 mg/kg/injection, schedule: Q04DX003 (ip), vehicle: saline 97 % of control | endpoint: mean survival time, dose: 400.0 mg/kg/injection, schedule: Q04DX003 (ip), vehicle: saline 101 % of control
